Data published in patent US20220304943A1, “FLOWABLE CANNABINOID COMPOSITIONS HAVING HIGH EFFECTIVE CONCENTRATIONS” (Canopy Growth Corporation, priority 2019, published 2022).

Test: Saturation concentration of CBDA and CBD
Assay type: physicochemical
From the text: A cannabinoid composition comprising a 2:1 mixture of cannabidiolic acid (CBDA) and cannabidiol (CBD) and only minor amounts of other products provides a non-limiting illustration of how a cannabinoid incipient can be utilized to increase the in actio concentration of a target cannabinoid without increasing the in situ concentration of the target cannabinoid above its saturation concentration. […] In other words, under at least some vape-device related conditions, CBD solutions comprising greater than about 50 wt. % CBD may suffer from reduced flowability within a vape device. As such, high effective CBD concentrations appear untenable based on conventional strategies. However, the experimental results set out herein also indicate that: (i) the saturation concentration of CBDA under similar circumstances is considerably higher than that of CBD; (ii) CBDA can be converted to CBD under the conditions associated with cannabinoid vapourization (e.g. the formation of a cannabinoid-based vapour or aerosol); and (iii) including CBDA in an in situ composition can increase the saturation concentration of CBD. Accordingly, as evidenced by the results set out in the present disclosure, CBDA can be utilized as an incipient—it can increase the in actio concentration of CBD without increasing the in situ concentration of CBD above its saturation concentration. […] In this respect, the present disclosure provides access to flowable cannabinoid compositions having high effective concentrations.
FIG. 1 illustrates this with a schematic phase diagram 100 for a cannabinoid composition in accordance with the present disclosure that comprises CBDA and CBD. […] In FIG. 1, the saturation concentration of CBDA and CBD are identified with reference numbers 102 and 104, respectively, and they delineate a “potentially flowable zone” 106 from a “non-flowable zone” 108. […] This is indicated schematically in FIG. 1 with arrow 110. […]

[1] = ethanol solutions under standard temperature and pressure conditions, CBD derived from an isolate

Compound | saturation concentration [1] | saturation concentration (under at least some vape-device related conditions)
C=C(C)[C@@H]1CCC(C)=C[C@H]1c1c(O)cc(CCCCC)c(C(=O)O)c1O [CBDA, cannabidiolic acid] | about 70 wt. % | –
C=C(C)[C@@H]1CCC(C)=C[C@H]1c1c(O)cc(CCCCC)cc1O [CBD, cannabidiol] | about 50 wt. % | about 50 wt. %
